Measured values taken from ChEMBL document CHEMBL1201862, “PubChem BioAssay data set” (2004).
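Exposure lasted 48 hours, with cells grown in 96-well plates and compounds tested at five concentrations. At the GI50, growth is halved.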 Calls of active or inactive are those of the source. Rule as the data show it: active = GI50 up to about 1.1 µM and inactive = higher.

Legend:
Experiment in all cases: NCI tumour cell line growth inhibition, 48 h
[1] = tested on: ACHN
[2] = tested on: TK-10
[3] = tested on: OVCAR-4
[4] = tested on: OVCAR-8
[5] = tested on: HCT-116
[6] = tested on: EKVX
[7] = tested on: UACC-62
[8] = tested on: NCI-H460
[9] = tested on: OVCAR-3
[10] = tested on: SNB-19
[11] = tested on: SF-295
[12] = tested on: CAKI-1
[13] = tested on: UACC-257
[14] = tested on: SK-MEL-5
[15] = tested on: A549
[16] = tested on: CCRF-CEM
[17] = tested on: PC-3
[18] = tested on: MCF7
[19] = tested on: T47D
[20] = tested on: DU-145

| SMILES | GI50 [1] | GI50 [2] | GI50 [3] | GI50 [4] | GI50 [5] | GI50 [6] | GI50 [7] | GI50 [8] | GI50 [9] | GI50 [10] | GI50 [11] | GI50 [12] | GI50 [13] | GI50 [14] | GI50 [15] | GI50 [16] | GI50 [17] | GI50 [18] | GI50 [19] | GI50 [20] |
| --- | --- | --- | --- | --- | --- | --- | --- | --- | --- | --- | --- | --- | --- | --- | --- | --- | --- | --- | --- | --- |
| c1ccc2c(c1)C1=NCCN1c1ccccc1-2 | 2.11 µM (inactive) | 2.49 µM (inactive) | 2.91 µM (inactive) | 2.51 µM (inactive) | 1.23 µM (inactive) | 4.54 µM (inactive) | 3.37 µM (inactive) | 1.77 µM (inactive) | 2.95 µM (inactive) | 3.46 µM (inactive) | 5.09 µM (inactive) | 2.6 µM (inactive) | 2.7 µM (inactive) | 2.49 µM (inactive) | 3.97 µM (inactive) | 1.64 µM (inactive) |  |  |  |  |
| Cn1c2ccccc2c(=O)c2ccc(Cl)cc21 |  | 7.5 µM (inactive) | > 10 µM (inactive) | > 10 µM (inactive) | > 10 µM (inactive) | 1.38 µM (inactive) | > 10 µM (inactive) |  | > 10 µM (inactive) | 0.0676 µM (active) | > 10 µM (inactive) |  |  | > 10 µM (inactive) | 6.01 µM (inactive) | > 10 µM (inactive) | > 10 µM (inactive) | > 10 µM (inactive) | > 10 µM (inactive) |  |
| CCOC(=O)c1nc2ccccc2nc1Nc1cc(OC)c(OC)c(OC)c1 | > 100 µM (inactive) | > 10 µM (inactive) | > 100 µM (inactive) |  | > 100 µM (inactive) | > 100 µM (inactive) | > 100 µM (inactive) | > 100 µM (inactive) | > 100 µM (inactive) | > 100 µM (inactive) | > 100 µM (inactive) | > 100 µM (inactive) |  | > 100 µM (inactive) | > 100 µM (inactive) | > 100 µM (inactive) |  | > 100 µM (inactive) | > 100 µM (inactive) | > 100 µM (inactive) |
| O=C(OCc1ccccc1CN1CCOCC1)c1ccc(Br)cc1 | > 100 µM (inactive) | > 100 µM (inactive) | 43.5 µM (inactive) | 85.1 µM (inactive) | 32.6 µM (inactive) | 55.1 µM (inactive) | 55 µM (inactive) | > 100 µM (inactive) | 31.8 µM (inactive) | > 100 µM (inactive) |  |  | 43.2 µM (inactive) | 12.2 µM (inactive) | 45.6 µM (inactive) |  | 85.5 µM (inactive) | 39.6 µM (inactive) | 43.5 µM (inactive) | > 100 µM (inactive) |
| COc1ccc(-c2cc(-c3cc(F)c(Cl)cc3Cl)on2)cc1OC | 37.2 µM (inactive) | 49.5 µM (inactive) | 10.1 µM (inactive) | 72.3 µM (inactive) | 29.2 µM (inactive) | 75.5 µM (inactive) |  | 26.2 µM (inactive) | 11.8 µM (inactive) | > 100 µM (inactive) | 13.2 µM (inactive) | 45 µM (inactive) | 22.4 µM (inactive) | 9.51 µM (inactive) | 30.8 µM (inactive) | 12.5 µM (inactive) | 18.7 µM (inactive) |  | 15.6 µM (inactive) | 37.1 µM (inactive) |
| CC1=C(C(=O)NCc2ccccc2)C(c2ccccc2[N+](=O)[O-])C(C(=O)NCc2ccccc2)=C(C)N1 | 13.9 µM (inactive) | 17.6 µM (inactive) | 10.2 µM (inactive) | 13.1 µM (inactive) | 6.75 µM (inactive) | 16.4 µM (inactive) | 8.49 µM (inactive) | 14 µM (inactive) | 5.31 µM (inactive) | 14.2 µM (inactive) | 12.4 µM (inactive) | 21.3 µM (inactive) | 13.3 µM (inactive) | 13.1 µM (inactive) | 25.9 µM (inactive) | 6.89 µM (inactive) |  |  |  |  |
| Ic1ncnc2c1ncn2C1CCCO1 (configuration not stated) | > 100 µM (inactive) | > 100 µM (inactive) | > 100 µM (inactive) | > 100 µM (inactive) | > 100 µM (inactive) | > 100 µM (inactive) | > 100 µM (inactive) | > 100 µM (inactive) | > 100 µM (inactive) | > 100 µM (inactive) | > 100 µM (inactive) | > 100 µM (inactive) | > 100 µM (inactive) | > 100 µM (inactive) | > 100 µM (inactive) | > 100 µM (inactive) |  |  |  |  |
| OC1OC2COC(c3ccccc3)OC2C(O)C1O (configuration not stated) | > 100 µM (inactive) | > 100 µM (inactive) | > 100 µM (inactive) | > 100 µM (inactive) | > 100 µM (inactive) | > 100 µM (inactive) | > 100 µM (inactive) | > 100 µM (inactive) | > 100 µM (inactive) | > 100 µM (inactive) | > 100 µM (inactive) | > 100 µM (inactive) | > 100 µM (inactive) | > 100 µM (inactive) | > 100 µM (inactive) | > 100 µM (inactive) |  |  |  |  |
| Nc1ccc(-c2cssc2=S)cc1 | 38.1 µM (inactive) | 40.6 µM (inactive) | 49.1 µM (inactive) | 45.7 µM (inactive) | 42 µM (inactive) | 41.6 µM (inactive) | 26.9 µM (inactive) | 33.9 µM (inactive) |  | > 100 µM (inactive) | 33.3 µM (inactive) | 37.9 µM (inactive) | 59.6 µM (inactive) | 32.8 µM (inactive) | 50.6 µM (inactive) |  | 41.9 µM (inactive) | 52.1 µM (inactive) |  |  |
| O=C1CCC2(c3ccc(Cl)cc3)Nc3ccncc3N12 (configuration not stated) | > 10 µM (inactive) | > 10 µM (inactive) | > 10 µM (inactive) | > 10 µM (inactive) | > 10 µM (inactive) | > 10 µM (inactive) | > 10 µM (inactive) | > 10 µM (inactive) | > 10 µM (inactive) | > 10 µM (inactive) | > 10 µM (inactive) |  | > 10 µM (inactive) |  | > 10 µM (inactive) | > 10 µM (inactive) | > 10 µM (inactive) |  |  | 4.4 µM (inactive) |
| CC#CCC1CCC(OCC)=CC1=O (configuration not stated) | > 100 µM (inactive) | > 100 µM (inactive) | > 100 µM (inactive) | > 100 µM (inactive) | > 100 µM (inactive) | > 100 µM (inactive) | > 100 µM (inactive) | > 100 µM (inactive) | > 100 µM (inactive) | > 100 µM (inactive) | > 100 µM (inactive) | > 100 µM (inactive) | > 100 µM (inactive) | > 100 µM (inactive) | > 100 µM (inactive) | > 100 µM (inactive) |  |  |  |  |
| O=c1[nH]n(Cc2ccccc2)c2ccc([N+](=O)[O-])cc12 | > 100 µM (inactive) | > 100 µM (inactive) | > 100 µM (inactive) | > 100 µM (inactive) | 49.4 µM (inactive) | > 100 µM (inactive) | > 100 µM (inactive) | 40.6 µM (inactive) | > 100 µM (inactive) | > 100 µM (inactive) | 66.8 µM (inactive) | 59.2 µM (inactive) | 60.8 µM (inactive) | 46.9 µM (inactive) | 61 µM (inactive) | 55.2 µM (inactive) | 37.2 µM (inactive) | 28.2 µM (inactive) |  | > 100 µM (inactive) |
| CN(C)CCNC(=O)c1cccc2c(NC(CCCNC(=N)N)C(=O)O)c3ccccc3[n+](C)c12 (configuration not stated) | 68.7 µM (inactive) | > 100 µM (inactive) | > 100 µM (inactive) | 92 µM (inactive) | 45.6 µM (inactive) | > 100 µM (inactive) | > 100 µM (inactive) | 49.3 µM (inactive) | > 100 µM (inactive) | > 100 µM (inactive) | > 100 µM (inactive) |  | > 100 µM (inactive) | 40.1 µM (inactive) | 78.5 µM (inactive) |  | 79.8 µM (inactive) | 45.4 µM (inactive) | 80.9 µM (inactive) | 70.1 µM (inactive) |
| CN(C)CCOc1ccc(I)cc1Cc1ccccc1 | 12.2 µM (inactive) | 12.7 µM (inactive) | 11.8 µM (inactive) | 16 µM (inactive) | 10.6 µM (inactive) | 14.5 µM (inactive) | 3.28 µM (inactive) | 11.9 µM (inactive) | 13.2 µM (inactive) | 13.7 µM (inactive) | 15.4 µM (inactive) |  | 15.2 µM (inactive) | 3.61 µM (inactive) | 15.5 µM (inactive) | 4.85 µM (inactive) | 8.28 µM (inactive) | 13 µM (inactive) | 3.81 µM (inactive) | 17.1 µM (inactive) |
| Cc1ccc(C)n1-c1ccccc1C1SCCCS1 | > 100 µM (inactive) | > 100 µM (inactive) | > 100 µM (inactive) | > 100 µM (inactive) | > 100 µM (inactive) | > 100 µM (inactive) | > 100 µM (inactive) | > 100 µM (inactive) | > 100 µM (inactive) | > 100 µM (inactive) | 54.1 µM (inactive) | > 100 µM (inactive) | > 100 µM (inactive) | > 100 µM (inactive) | 98.9 µM (inactive) | 59.8 µM (inactive) | > 100 µM (inactive) | 37.3 µM (inactive) |  | > 100 µM (inactive) |
| Cc1c(-c2ccccc2)[nH]c2cn[nH]c(=O)c12 | > 100 µM (inactive) | > 100 µM (inactive) |  | > 100 µM (inactive) | > 100 µM (inactive) | 34.6 µM (inactive) | 59.2 µM (inactive) | > 100 µM (inactive) | 39.6 µM (inactive) | > 100 µM (inactive) | 41 µM (inactive) | > 100 µM (inactive) | > 100 µM (inactive) | 67.9 µM (inactive) | > 100 µM (inactive) | 57.1 µM (inactive) | 67.9 µM (inactive) | 45.1 µM (inactive) |  | > 100 µM (inactive) |
